Measured values from US12071426B2, “IRE1 small molecule inhibitors” (Cornell University, priority 2018, dated 2024).

Tests used:
[1] = target: T1, IRE1a (Homo sapiens, UniProt O75460); assay: In vitro FRET assay (XBP1 RNA probe cleavage); assay type: biochemical; details: SignalChem IRE1a protein 2 nM, fluorescence 485/515 nm
Protocol: In vitro FRET assay was performed to evaluate the ability of select compounds to inhibit IRE1, the results of which are summarized in Table 3. To perform the in vitro FRET assay, 1× complete assay buffer (CAB; […], 50 mM sodium citrate pH 7.15, 1 mM magnesium acetate, 0.02% tween 20) was used to dilute SignalChem IRE1a protein to a final concentration of 2 nM. Selected compounds were serially diluted with DMSO in a non-binding black 384-well plate for a total of 15 ul in each well. 2 ul of the serially diluted compound or DMSO control were then added to new wells containing 98 ul of 1× CAB, for a total volume of 100 ul, 10 ul of which were then transferred to wells of a new plate. 5 ul of the diluted IRE1a was then added to each well. 5 ul of a […] XBP1 RNA probe was then added to each well. Fluorescence was then read over 30 minutes in kinetic mode (485/515 nm).
Two RNA probes were used, XBP1 wildtype (SEQ ID NO: 2) which is able to be spliced by active IRE1a or XBP1 mutant (SEQ ID NO: 3) which is unable to be spliced. Each probe contained a 5′ 6-FAM modification and a 3′ IOWA Black FQ modification.
A second FRET assay was performed to assess ATP-mediated inhibition. In this case, compounds and IRE1a were prepared and combined as discussed above, with the addition of ATP up to 1 mM final concentration. […] Plates were then read over 30 minutes in kinetic mode (485/515 nm).

[2] = Microsome stability assay; assay type: in vitro ADME; details: liver microsomes, 1 μM, 37° C., 0.5 mg/ml microsomal protein
Protocol: The formic acid salt of a compound from Table 1 is tested under the microsome stability assay outlined below. Test compounds are incubated at 37° C. with liver microsomes (pooled from multiple donors) at 1 μM in the presence of a NADPH regenerating system at 0.5 mg/ml microsomal protein. Positive controls included Testosterone (3A4 substrate), Propafenone (2D6) and Diclofenac (2C9), which are incubated with microsomes in the presence of an NADPH regenerating system. At time points (0, 5, 10, 20, 30 and 60 minutes), samples are removed and immediately mixed with cold acetonitrile containing internal standard (IS). Test compounds incubated with microsomes without the NADPH regenerating system for 60 min is also included. A single point for each test condition (n=1) is obtained, and samples are analyzed by LC/MS/MS. Disappearance of the test compound is assessed based on peak area ratios of analyte/IS (no standard curve). […] Compound 1 was tested and had 45% or more of parent compound remaining after a 60 minute incubation.

[3] = target: T1, IRE1a; assay: IRE1a Endoribonuclease Nanoluciferase Assay (XBP1 luciferase reporter in 293T cells); assay type: cell-based; set-up: endogenous in cells; host or cells: 293T cells; details: 293T cells transfected with XBP1 luciferase reporter plasmid, ER stressors +/- inhibitors
Protocol: Compounds disclosed herein were assessed for disruption of IRE1 signaling using a IRE1a Endoribonuclease Nanoluciferase Assay. Briefly, 2.5×10^6 293T cells were seeded in a 10 cm^2 tissue culture plate. About 24 hours later, the cells were transfected with Effectene. In a 15 mL tube, the following was added: 2 ug XBP1 luciferase reporter plasmid (PGK-Luc2-P2A-XBP1u-Nanoluciferase-PEST); 300 ul EC buffer; and 16 ul Enhancer, followed by incubation at room temp for 5 minutes. Next, 60 ul Effectene (Qiagen 301427) was added, followed by incubation at room temperature for 10 minutes. 2.6 mL cDMEM media was added. Old media was aspirated from the cells, followed by addition of 7 mL fresh media. Full transfection mixture was added dropwise to cells. Cells were incubated for 6 hours, followed by trypsinization, centrifugation and resuspension in 11 mL fresh cDMEM media. 100 uL of cells were plated per a well in a 96 well plate. A day later, ER stressors of choice +/− inhibitors were added. To harvest, media was aspirated from cells completely, then 50 uL 1× passive lysis buffer (Promega: E1941) was added per well and put on shaker (300 rpm) for 30 minutes at room temperature. […] Plates were read on luminometer, 1000 ms integration time per well. […] Plates were read on luminometer, 1000 ms second integration time per well. […]

T1 sequence (O75460 19-977): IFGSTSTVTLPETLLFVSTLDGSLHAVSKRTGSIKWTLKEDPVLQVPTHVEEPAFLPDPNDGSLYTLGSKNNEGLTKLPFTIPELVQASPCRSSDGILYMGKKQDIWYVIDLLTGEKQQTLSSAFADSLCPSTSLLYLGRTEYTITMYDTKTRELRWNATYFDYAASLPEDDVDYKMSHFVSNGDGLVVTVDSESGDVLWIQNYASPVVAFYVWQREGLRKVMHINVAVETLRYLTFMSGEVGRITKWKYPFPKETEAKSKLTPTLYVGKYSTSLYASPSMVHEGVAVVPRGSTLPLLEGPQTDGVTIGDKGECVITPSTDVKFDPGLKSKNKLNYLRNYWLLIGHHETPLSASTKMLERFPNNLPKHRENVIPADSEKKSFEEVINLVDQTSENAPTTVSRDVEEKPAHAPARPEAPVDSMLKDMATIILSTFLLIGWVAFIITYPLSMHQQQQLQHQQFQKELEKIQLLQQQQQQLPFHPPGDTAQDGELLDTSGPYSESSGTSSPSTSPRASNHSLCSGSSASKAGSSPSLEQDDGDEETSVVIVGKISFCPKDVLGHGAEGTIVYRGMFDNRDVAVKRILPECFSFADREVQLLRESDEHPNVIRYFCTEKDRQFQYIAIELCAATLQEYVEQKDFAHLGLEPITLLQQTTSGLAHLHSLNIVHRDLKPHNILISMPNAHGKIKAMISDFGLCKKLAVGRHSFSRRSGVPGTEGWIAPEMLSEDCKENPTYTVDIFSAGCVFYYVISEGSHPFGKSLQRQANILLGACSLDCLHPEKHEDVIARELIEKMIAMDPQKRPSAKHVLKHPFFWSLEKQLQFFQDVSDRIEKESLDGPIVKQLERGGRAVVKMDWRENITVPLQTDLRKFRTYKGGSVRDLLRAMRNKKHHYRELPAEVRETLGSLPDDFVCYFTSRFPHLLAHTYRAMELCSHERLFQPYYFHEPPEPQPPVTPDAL

Structure (SMILES)	IC50 [1] [nM]	parent compound remaining after a 60 minute incubation [2] [%]	EC50 [3] [nM]
CCc1cc(-c2ccc(NS(=O)(=O)c3cnccc3Cl)nc2C)cc2cnc(N[C@H]3CC[C@H](N(C)C)CC3)nc12 [Compound 1, 4-chloro-N-(5-(2-(((1r,4r)-4-(dimethylamino)cyclohexyl)-amino)-8-ethylquinazolin-6-yl)-6-methylpyridin-2-yl)-pyridine-3-sulfonamide]	≤ 5	≥ 45	≤ 5
CCc1cc(-c2ccc(NS(=O)(=O)c3ccccc3Cl)nc2C)nc2cnc(N[C@H]3CC[C@H](N(C)C)CC3)nc12 [Compound 2, 2-chloro-N-(5-(2-(((1r,4r)-4-(dimethylamino)cyclohexyl)-amino)-8-ethylpyrido[3,2-d]-pyrimidin-6-yl)-6-methyl-pyridin-2-yl)benzenesulfon-amide]	≤ 5		≤ 5
